Experimental findings from patent US8697661B2, “Use of spinosyns and spinosyn compositions against herpesviridae viral infections” (priority 2009, dated 2014) are described below.

For series [1], the system named is Leishmania donovati MON-2 promastigotes. The series can be described thus: In vitro test against Leishmania promastigotes. Particulars: Leishmania, read-out: Promastigotes IC50.
Another series can be described thus: in vitro. As to conditions: mouse.
The test system of series [2] is Leishmania donovati MON-2 amastigotes. In words: In vitro test against Leishmania amastigotes in J774 macrophages. As to conditions: Leishmania, J774, read-out: Amastigotes IC50.
Series [3] has as its system macrophage mice cell type J774. Particulars: J774 CC50 over amastigote IC50.

What is called IC50 is the concentration that gives 50% inhibition. For the molecule `CCCCCCCCCCCCCCCCOP(=O)([O-])OCC[N+](C)(C)C` [Miltefosine], the IC50 in series [1] turned out to be 0.87 ± 0.04 µM; in series [2], 0.84 ± 0.04 µM. In the series “in vitro”, this molecule came in with a CC50 of 32.8 ± 5.1 µM. Moreover, the “Selectivity Index CC50/IC50ama” value in series [3] was 39.04.
Turning to `NC[C@@H]1O[C@H](O[C@H]2[C@@H](O)[C@H](O[C@@H]3[C@@H](O)[C@H](N)C[C@H](N)[C@H]3O[C@H]3O[C@H](CO)[C@@H](O)[C@H](O)[C@H]3N)O[C@@H]2CO)[C@H](N)[C@@H](O)[C@@H]1O` [Aminosidine], the IC50 in series [1] worked out at 5.6 ± 0.6 µM; in series [2], 12.8 ± 4 µM. Further, the CC50 in the series “in vitro” is 448 ± 8.6 µM. In series [3], the “Selectivity Index CC50/IC50ama” value turned out to be 34.96.
